Patent US6737383B1, “Herbicidal oxadiazolidines” (priority 1999, dated 2004)

Legend:
surinam grass = assay: Test B pre/postemergence surinam grass; type: in vivo, Brachiaria decumbens
Method in brief: (§1)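 Herbicidal effect was estimated by eye on a ten-point control scale after plants spent twelve to sixteen days in a greenhouse following soil or foliar treatment. Foliar sprays targeted plants at one to four leaves; all doses were formulated in a non-phytotoxic solvent with surfactant.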

crabgrass = assay: Test B pre/postemergence crabgrass; type: in vivo, Digitaria sanguinalis
Method in brief: as §1

bedstraw = assay: Test B pre/postemergence bedstraw; type: in vivo, Galium aparine
Method in brief: as §1

corn = assay: Test B pre/postemergence corn; type: in vivo, Zea mays
Method in brief: as §1

morningglory = assay: Test B pre/postemergence morningglory; type: in vivo, Ipomoea hederacea
Method in brief: as §1

cocklebur = assay: Test B pre/postemergence cocklebur; type: in vivo, Xanthium strumarium
Method in brief: as §1

velvetleaf = assay: Test B pre/postemergence velvetleaf; type: in vivo, Abutilon theophrasti
Method in brief: as §1

wild oat = assay: Test B pre/postemergence wild oat; type: in vivo, Avena fatua
Method in brief: as §1

purple nutsedge = assay: Test B pre/postemergence purple nutsedge; type: in vivo, Cyperus rotundus
Method in brief: as §1

wheat = assay: Test B pre/postemergence wheat; type: in vivo, Triticum aestivum
Method in brief: as §1

rape = assay: Test B pre/postemergence rape; type: in vivo, Brassica napus
Method in brief: as §1

giant foxtail = assay: Test B pre/postemergence giant foxtail; type: in vivo, Setaria faberii
Method in brief: as §1

blackgrass = assay: Test B pre/postemergence blackgrass; type: in vivo, Alopecurus myosuroides
Method in brief: as §1

soybean = assay: Test B pre/postemergence soybean; type: in vivo, Glycine max
Method in brief: as §1

sugar beet = assay: Test B pre/postemergence sugar beet; type: in vivo, Beta vulgaris
Method in brief: as §1

pigweed = assay: Test B pre/postemergence pigweed; type: in vivo, Amaranthus retroflexus
Method in brief: as §1

[1] = Postemergence, Rate 62 g/ha, scale of 0 to 10, 0 is no effect, 10 is complete control
[2] = Postemergence, Rate 125 g/ha, scale 0 to 10, 0 is no effect, 10 is complete control
[3] = Postemergence, Rate 500 g/ha, scale 0 to 10, 0 is no effect, 10 is complete control
[4] = Preemergence, Rate 62 g/ha, scale of 0 to 10 where 0 is no effect and 10 is complete control
[5] = Preemergence, Rate 125 g/ha, scale 0 to 10, 0 is no effect, 10 is complete control
[6] = Rate 250 g/ha, Postemergence, scale of 0 to 10 where 0 is no effect and 10 is complete control
[7] = Preemergence, Rate 500 g/ha, scale of 0 to 10 where 0 is no effect and 10 is complete control

CC(C)N(C(=O)n1oc(=O)n(CCCC(F)(F)F)c1=O)c1ccc(F)cc1F [Compound 526]
B. signalgrass plant response rating (surinam grass; [1]): 0 | B. signalgrass plant response rating (surinam grass; [2]): 2 | Plant response rating, B. signalgrass (surinam grass; [3]): 6 | Plant response rating, B. signalgrass (surinam grass; [4]): 8 | B. signalgrass plant response rating (surinam grass; [5]): 9 | B. signalgrass plant response rating (0 to 10 scale, 0 is no effect, 10 is complete control) (surinam grass; Preemergence, Rate 250 g/ha): 9 | Plant response rating, B. signalgrass (surinam grass; [6]): 4 | Crabgrass plant response rating (crabgrass; [1]): 6 | Crabgrass plant response rating (crabgrass; [2]): 9 | Plant response rating, Crabgrass (crabgrass; [3]): 10 | Plant response rating, Crabgrass (crabgrass; [4]): 9 | Crabgrass plant response rating (crabgrass; [5]): 10 | Crabgrass plant response rating (0 to 10 scale) (crabgrass; Preemergence, Rate 250 g/ha): 10 | Crabgrass plant response rating (crabgrass; [7]): 10 | Plant response rating, Crabgrass (crabgrass; [6]): 9 | Plant response rating, Bedstraw (bedstraw; [3]): 9 | Plant response rating, Bedstraw (bedstraw; [4]): 0 | Bedstraw plant response rating (bedstraw; [5]): 0 | Bedstraw plant response rating (0 to 10 scale) (bedstraw; Preemergence, Rate 250 g/ha): 7 | Corn plant response rating (corn; [1]): 0 | Corn plant response rating (corn; [2]): 2 | Plant response rating, Corn (corn; [3]): 2 | Plant response rating, Corn (corn; [4]): 0 | Corn plant response rating (corn; [5]): 0 | Corn plant response rating (0 to 10 scale) (corn; Preemergence, Rate 250 g/ha): 0 | Corn plant response rating (corn; [7]): 2 | Plant response rating, Corn (corn; [6]): 2 | Morningglory plant response rating (morningglory; [1]): 6 | Morningglory plant response rating (morningglory; [2]): 6 | Plant response rating, Morningglory (morningglory; [3]): 7 | Plant response rating, Morningglory (morningglory; [4]): 0 | Morningglory plant response rating (morningglory; [5]): 0 | Morningglory plant response rating (0 to 10 scale) (morningglory; Preemergence, Rate 250 g/ha): 0 | Morningglory plant response rating (morningglory; [7]): 2 | Plant response rating, Morningglory (morningglory; [6]): 6 | Cocklebur plant response rating (cocklebur; [1]): 0 | Cocklebur plant response rating (cocklebur; [2]): 0 | Plant response rating, Cocklebur (cocklebur; [3]): 2 | Plant response rating, Cocklebur (cocklebur; [4]): 0 | Cocklebur plant response rating (cocklebur; [5]): 0 | Cocklebur plant response rating (0 to 10 scale) (cocklebur; Preemergence, Rate 250 g/ha): 0 | Cocklebur plant response rating (cocklebur; [7]): 0 | Plant response rating, Cocklebur (cocklebur; [6]): 0 | Velvetleaf plant response rating (velvetleaf; [1]): 4 | Velvetleaf plant response rating (velvetleaf; [2]): 4 | Plant response rating, Velvetleaf (velvetleaf; [3]): 8 | Plant response rating, Velvetleaf (velvetleaf; [4]): 0 | Velvetleaf plant response rating (velvetleaf; [5]): 2 | Velvetleaf plant response rating (0 to 10 scale) (velvetleaf; Preemergence, Rate 250 g/ha): 2 | Velvetleaf plant response rating (velvetleaf; [7]): 3 | Plant response rating, Velvetleaf (velvetleaf; [6]): 7 | Wild oats plant response rating (wild oat; [1]): 0 | Wild oats plant response rating (wild oat; [2]): 0 | Plant response rating, Wild oats (wild oat; [3]): 0 | Plant response rating, Wild oats (wild oat; [4]): 7 | Wild oats plant response rating (wild oat; [5]): 9 | Wild oats plant response rating (0 to 10 scale) (wild oat; Preemergence, Rate 250 g/ha): 9 | Plant response rating, Wild oats (wild oat; [6]): 0 | Nutsedge plant response rating (purple nutsedge; [1]): 0 | Nutsedge plant response rating (purple nutsedge; [2]): 0 | Plant response rating, Nutsedge (purple nutsedge; [3]): 2 | Plant response rating, Nutsedge (purple nutsedge; [4]): 0 | Nutsedge plant response rating (purple nutsedge; [5]): 0 | Nutsedge plant response rating (0 to 10 scale) (purple nutsedge; Preemergence, Rate 250 g/ha): 0 | Nutsedge plant response rating (purple nutsedge; [7]): 0 | Plant response rating, Nutsedge (purple nutsedge; [6]): 0 | Wheat plant response rating (wheat; [1]): 0 | Wheat plant response rating (wheat; [2]): 0 | Plant response rating, Wheat (wheat; [3]): 0 | Plant response rating, Wheat (wheat; [4]): 0 | Wheat plant response rating (wheat; [5]): 0 | Wheat plant response rating (0 to 10 scale) (wheat; Preemergence, Rate 250 g/ha): 8 | Plant response rating, Wheat (wheat; [6]): 0 | Rape plant response rating (rape; [1]): 0 | Rape plant response rating (rape; [2]): 4 | Plant response rating, Rape (rape; [3]): 4 | Plant response rating, Rape (rape; [4]): 4 | Rape plant response rating (rape; [5]): 4 | Rape plant response rating (0 to 10 scale) (rape; Preemergence, Rate 250 g/ha): 9 | Giant foxtail plant response rating (giant foxtail; [1]): 3 | Giant foxtail plant response rating (giant foxtail; [2]): 3 | Plant response rating, Giant foxtail (giant foxtail; [3]): 8 | Plant response rating, Giant foxtail (giant foxtail; [4]): 9 | Giant foxtail plant response rating (giant foxtail; [5]): 10 | Giant foxtail plant response rating (0 to 10 scale) (giant foxtail; Preemergence, Rate 250 g/ha): 10 | Giant foxtail plant response rating (giant foxtail; [7]): 10 | Plant response rating, Giant foxtail (giant foxtail; [6]): 7 | Blackgrass plant response rating (blackgrass; [1]): 3 | Blackgrass plant response rating (blackgrass; [2]): 6 | Plant response rating, Blackgrass (blackgrass; [3]): 7 | Plant response rating, Blackgrass (blackgrass; [4]): 7 | Blackgrass plant response rating (blackgrass; [5]): 9 | Blackgrass plant response rating (0 to 10 scale) (blackgrass; Preemergence, Rate 250 g/ha): 10 | Plant response rating, Blackgrass (blackgrass; [6]): 9 | Soybean plant response rating (soybean; [1]): 2 | Soybean plant response rating (soybean; [2]): 3 | Plant response rating, Soybean (soybean; [3]): 3 | Plant response rating, Soybean (soybean; [4]): 0 | Soybean plant response rating (soybean; [5]): 0 | Soybean plant response rating (0 to 10 scale) (soybean; Preemergence, Rate 250 g/ha): 0 | Soybean plant response rating (soybean; [7]): 0 | Plant response rating, Soybean (soybean; [6]): 3 | Sugarbeets plant response rating (sugar beet; [1]): 0 | Sugarbeets plant response rating (sugar beet; [2]): 0 | Plant response rating, Sugarbeets (sugar beet; [3]): 0 | Plant response rating, Sugarbeets (sugar beet; [4]): 4 | Sugarbeets plant response rating (sugar beet; [5]): 6 | Sugarbeets plant response rating (0 to 10 scale) (sugar beet; Preemergence, Rate 250 g/ha): 8 | Sugarbeets plant response rating (sugar beet; [7]): 8 | Plant response rating, Sugarbeets (sugar beet; [6]): 0 | Redroot pigweed plant response rating (pigweed; [1]): 0 | Redroot pigweed plant response rating (pigweed; [2]): 0 | Plant response rating, Redroot pigweed (pigweed; [3]): 4 | Plant response rating, Redroot pigweed (pigweed; [4]): 4 | Redroot pigweed plant response rating (pigweed; [5]): 4 | Redroot pigweed plant response rating (0 to 10 scale) (pigweed; Preemergence, Rate 250 g/ha): 4 | Plant response rating, Redroot pigweed (pigweed; [6]): 2
